Where “and” joins values, the source holds several entries; their conditions need not be identical. Identical values can stand only once.
What was measured:
[1] = system: pre-45s rRNA in EGFPCAG27 RNA expressing cell; test: pre-45s rRNA real-time PCR, EGFPCAG27 RNA expressing cells; type: cell-based, human
Description: (§1) Nucleolar stress and a chain of downstream events were triggered and ultimately led to apoptosis^7.
(§2) RNA was extracted from cells by Trizol reagent (Life Technologies), and 1 μg of purified RNA was then used for reverse-transcription using the ImPromII™ Reverse Transcription System (Promega). Random hexamer (Roche) was used as primers in reverse transcription. Taqman gene expression assays were performed on an ABI 7500 Real-time PCR system and data were analyzed as previously described^7. The following probes were used: pre-45s rRNA (Assay ID: AILJIZM) and actin (Assay ID: Hs99999903_m1).

[2] = system: CUG-repeat RNA; details: reported previously; cited from earlier work
[3] = system: DsRedCAG100 fly; test: Pseudopupil assay in DsRedCAG100 fly (expanded CAG-repeat RNA toxicity); type: in vivo, Drosophila; details: 12 day-old adult flies
Description: The synthesis of DB213 was described in Marcheschi et al. (Scheme 1)^12, see FIG. 1. By using a MJD (one kind of polyQ diseases) Drosophila disease model, the inventors established an effective screening platform to test a series of synthesized small molecules for their activity to suppress polyQ-induced neurodegeneration. […] To test whether the compounds acted on CAG-repeat RNA level, another Drosophila model, DsRedCAG100^6, was employed. […] Therefore, DB213 was confirmed to modulate expanded CAG-repeat RNA-mediated toxicity in vivo.
(§3) Flies were raised at 21.5° C. on cornmeal medium supplemented with dry yeast. Pseudopupil assay was performed on 12 day-old adult flies as mentioned previously^18. Images were captured by SPOT Insight CCD camera controlled by the SPOT Advanced software (Diagnostic instruments Inc.). External eye assay was performed on 12 day-old adult flies by Olympus SZX-12 stereomicroscope. Eye images were captured using a SPOT Insight CCD camera (Diagnostic instruments Inc.).

[4] = Body weight in R6/2 mice; details: for Body weight (individual mouse): in g (unit assumed); for Body weight, differences between treatment groups: any time point, p>0.05
Description: The body weights were measured daily.

[5] = system: pre-45s rRNA in EGFPCAG78 RNA expressing SK-N-MC cells; test: pre-45s rRNA real-time PCR, EGFPCAG78 RNA expressing SK-N-MC cells; type: cell-based, human
Description: as §1, §2

[6] = mouse, in vivo, iv, 50 mg/kg
Description: Body temperature was measured from rectum on day 1 (baseline), and on days 3, 5 and 7.
Body temperature was measured from rectum on day 1 (baseline) and on days 3, 5 and 7.

[7] = system: CTG480 fly; test: Neurodegeneration in CTG480 fly (Myotonic dystrophy 1 model); type: in vivo, Drosophila
Description: (§4) Other disease fly models, including α-synuclein (Parkinson's disease)^13, CTG480 (Myotonic dystrophy 1)^14 and CGG90 (Fragile X syndrome)^15 were employed to address the specificity of DB213 on trinucleotide repeat expansion RNA toxicity.
as §3

[8] = system: α-synuclein fly; test: Neurodegeneration in α-synuclein fly (Parkinson's disease model); type: in vivo, Drosophila
Description: as §4, §3

For CN(C)CCCNC(=N)c1ccc(C(=N)NCCCN(C)C)cc1.Cl.Cl.Cl.Cl [DB213], the “pre-45s rRNA transcription level” value [1] is given as “did not alter the pre-45s rRNA transcription level”, the “Binding to CUG repeats / CUG-repeat RNA” value [2] is given as “did not bind to CUG repeats” and the “Suppression of DsRedCAG100 RNA-mediated toxicity (neurodegeneration)” value [3] is given as “suppressed the DsRedCAG100 RNA-mediated toxicity in a dose-dependent manner”. For the same compound, the “Body weight (individual mouse)” value ([4]; i.n. daily 50 mg/kg, Day 1, listed as Compound-5, 50 mg/kg) was 20.9 and 20 and 23.9, the Body weight (group Mean) ([4]; i.n. daily 50 mg/kg, Day 2) was 21.1 g and the “Body weight (individual mouse)” value ([4]; i.n. daily 50 mg/kg, Day 2, listed as Compound-5, 50 mg/kg) was 20.6 and 17.9 and 17.5 and 25.3. For the same compound, the “Body weight (individual mouse)” value ([4]; i.n. daily 50 mg/kg, Day 3, listed as Compound-5, 50 mg/kg) was 21.1 and 24 and 26.3, the Body weight (group Mean) ([4]; i.n. daily 50 mg/kg, Day 4) was 22 g and the “Body weight (individual mouse)” value ([4]; i.n. daily 50 mg/kg, Day 4, listed as Compound-5, 50 mg/kg) was 20.1 and 26.3. For the same compound, the “Body weight (individual mouse)” value ([4]; i.n. daily 50 mg/kg, Day 5, listed as Compound-5, 50 mg/kg) was 19.9 and 17.4 and 23.6 and 20.7 and 25.6, the Body weight (group Mean) ([4]; i.n. daily 50 mg/kg, Day 6) was 21.5 g and the “Body weight (individual mouse)” value ([4]; i.n. daily 50 mg/kg, Day 6, listed as Compound-5, 50 mg/kg) was 19.9 and 17.6 and 21.5 and 25. For the same compound, the “Body weight (individual mouse)” value ([4]; i.n. daily 50 mg/kg, Day 7, listed as Compound-5, 50 mg/kg) was 20.4 and 17.9 and 23.5 and 21.5 and 26.3, the “Body weight (individual mouse)” value ([4]; i.n. daily 100 mg/kg, Day 1, listed as Compound-5, 100 mg/kg) was 19 and 20.6 and 23.5 and 23.2 and 23.7 and the Body weight (group Mean) ([4]; i.n. daily 100 mg/kg, Day 2) was 21 g. The “Body weight (individual mouse)” value ([4]; i.n. daily 100 mg/kg, Day 2, listed as Compound-5, 100 mg/kg) was 20.3 and 19.2 and 23.2 and 20.7 and 23.6, the “Body weight (individual mouse)” value ([4]; i.n. daily 100 mg/kg, Day 3, listed as Compound-5, 100 mg/kg) was 19.3 and 20.7 and 19.8 and 23.9 and 21.1 and the Body weight (group Mean) ([4]; i.n. daily 100 mg/kg, Day 4) was 21.6 g. The “Body weight (individual mouse)” value ([4]; i.n. daily 100 mg/kg, Day 4, listed as Compound-5, 100 mg/kg) was 19.4 and 19.8 and 24 and 21.1 and 24.4, the “Body weight (individual mouse)” value ([4]; i.n. daily 100 mg/kg, Day 5, listed as Compound-5, 100 mg/kg) was 20.6 and 19.4 and 23.6 and 20.7 and 23.9 and the Body weight (group Mean) ([4]; i.n. daily 100 mg/kg, Day 6) was 21.5 g. For the same compound, the “Body weight (individual mouse)” value ([4]; i.n. daily 100 mg/kg, Day 6, listed as Compound-5, 100 mg/kg) was 19.8 and 23.6 and 21.1 and 24, the Body weight (group Mean) ([4]; i.n. daily 100 mg/kg, Day 7) was 21.1 g and the “Body weight (individual mouse)” value ([4]; i.n. daily 100 mg/kg, Day 7, listed as Compound-5, 100 mg/kg) was 19 and 19.4 and 24.7. For the same compound, the Body weight (group Mean) ([4]; i.n. daily 200 mg/kg, Day 1) was 20.9 g, the “Body weight (individual mouse)” value ([4]; i.n. daily 200 mg/kg, Day 1, listed as Compound-5, 200 mg/kg) was 19.9 and 23.6 and the “Body weight (individual mouse)” value ([4]; i.n. daily 200 mg/kg, Day 2, listed as Compound-5, 200 mg/kg) was 23.5. For the same compound, the Body weight (group Mean) ([4]; i.n. daily 200 mg/kg, Day 3) was 20.4 g, the “Body weight (individual mouse)” value ([4]; i.n. daily 200 mg/kg, Day 3, listed as Compound-5, 200 mg/kg) was 18.3 and 19.2 and 21.5 and the “Body weight (individual mouse)” value ([4]; i.n. daily 200 mg/kg, Day 4, listed as Compound-5, 200 mg/kg) was 17.9 and 19. For the same compound, the Body weight (group Mean) ([4]; i.n. daily 200 mg/kg, Day 5) was 20.7 g, the “Body weight (individual mouse)” value ([4]; i.n. daily 200 mg/kg, Day 5, listed as Compound-5, 200 mg/kg) was 18.2 and 18.3 and 22.7 and the “Body weight (individual mouse)” value ([4]; i.n. daily 200 mg/kg, Day 6, listed as Compound-5, 200 mg/kg) was 18.4 and 23.1. For the same compound, the Body weight (group Mean) ([4]; i.n. daily 200 mg/kg, Day 7) was 20.4 g, the Body weight (group Mean) ([4]; i.n. daily 300 mg/kg, Day 1) was 21.6 g and the Body weight (group Mean) ([4]; i.n. daily 300 mg/kg, Day 2) was 20.2 g. The Body weight (group Mean) ([4]; i.n. daily 300 mg/kg, Day 3) was 19.5 g, the Body weight (group Mean) ([4]; i.n. daily 300 mg/kg, Day 6) was 20.1 g and the Body weight (group Mean) ([4]; i.n. daily 300 mg/kg, Day 7) was 20.4 g. The “Body weight, differences between treatment groups” value ([4]; i.n. daily 50-300 mg/kg) was “no differences in body weight”, the Body weight (group Mean) ([4]; i.v. 50 mg/kg (treatment discontinued), Day 2, n 1) was 16.1 g and the Body weight (group Mean) ([4]; i.v. 50 mg/kg (treatment discontinued), Day 3, n 1) was 16.3 g. The Body weight (group Mean) ([4]; i.v. 50 mg/kg (treatment discontinued), Day 4, n 1) was 16.2 g, the Body weight (group Mean) ([4]; i.v. 50 mg/kg (treatment discontinued), Day 5, n 1) was 16.8 g and the Body weight (group Mean) ([4]; i.v. 50 mg/kg (treatment discontinued), Day 6 (not measured, replaced by mean of days 5 and 7), n 1) was 16.8 g. The Body weight (group Mean) ([4]; i.v. 50 mg/kg (treatment discontinued), Day 7, n 1) was 16.8 g, the Body weight (group Mean) ([4]; i.v. twice-a-week 12.5 mg/kg, Day 3) was 22 g and the Body weight (group Mean) ([4]; i.v. twice-a-week 12.5 mg/kg, Day 4) was 22 g. It also gave a Body weight (group Mean) ([4]; i.v. twice-a-week 12.5 mg/kg, Day 6 (not measured, replaced by mean of days 5 and 7)) of 22.4 g, a Body weight (group Mean) ([4]; i.v. twice-a-week 12.5 mg/kg, Day 7) of 22.6 g and a Body weight (group Mean) ([4]; i.v. twice-a-week 25 mg/kg, Day 2) of 21 g. For the same compound, the Body weight (group Mean) ([4]; i.v. twice-a-week 25 mg/kg, Day 3) was 21.6 g, the Body weight (group Mean) ([4]; i.v. twice-a-week 25 mg/kg, Day 4) was 21.6 g and the Body weight (group Mean) ([4]; i.v. twice-a-week 25 mg/kg, Day 7) was 22 g. The “Body weight, differences between treatment groups” value ([4]; i.v. twice-a-week 12.5 and 25 mg/kg) was “no differences in body weight”, the “pre-45s rRNA transcription level” value [5] was “could restore the pre-45s rRNA transcription level” and the “Body temperature (group Mean)” value [6] was 37.5. For the same compound, the Suppression of neurodegeneration [7] was “did not suppress the neurodegeneration” and the Suppression of neurodegeneration [8] was “did not suppress the neurodegeneration”.

— patent US10143666B2, “Small molecule inhibitors targeting CAG-repeat RNA toxicity in polyglutamine diseases” (The Chinese University of Hong Kong, priority 2015, dated 2018)
